Assay [1] concerns Escherichia coli ATCC 25922. As to the kind of experiment: Minimum inhibitory concentration (MIC), CLSI broth micro-dilution, E. coli. The class given is cell-based. Conditions: Escherichia coli, ATCC25922, 22 h, Table 6, cation adjusted Mueller Hinton Broth + 0.002% Tween-80, 35° C. The method, boiled down:
(§1)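 Colonies grown 20 h at 35° C on Trypticase Soy agar (MRSA) or Luria agar (E. coli) were suspended in cation-adjusted Mueller Hinton broth with 0.002% Tween-80. Suspensions were added at OD600 0.0005 to 10-point twofold compound dilutions, then incubated 22 h at 35° C.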
On the technique in general: Broth dilution looks for growth in wells or tubes with falling amounts of substance.

Assay [2] has as its system Methicillin Resistant Staphylococcus aureus strain USA 200. Description: Minimum inhibitory concentration (MIC), CLSI broth micro-dilution, S. aureus. The class given is cell-based. To be noted: Staphylococcus aureus, MRSA / USA200; Table 6; MRSA USA 200; cation adjusted Mueller Hinton Broth + 0.002% Tween-80; 35° C., 22 hours. A digest of the protocol:
as §1

SMILES strings stand for the structures.

The term MIC denotes the least concentration at which growth counts as inhibited.

Take `Cc1cc(-c2ccc(CC(C)C)cc2)ncc1C(=O)N[C@@H](CCN)C(=O)N(C)[C@@H]1C(=O)N[C@@H](C)C(=O)N[C@H](C(=O)NCC#N)Cc2ccc(O)c(c2)-c2cc1ccc2OCCN` (racemic) [Compound 525, rac-(8S,11S,14S)-18-(2-aminoethoxy)-N-(cyanomethyl)-3-hydroxy-11-methyl-14-[methyl-[rac-(2S)-4-amino-2-[[6-(4-isobutylphenyl)-4-methyl-pyridine-3-carbonyl]amino]butanoyl]amino]-10,13-dioxo-9,12-diazatricyclo[13.3.1.12,6]icosa-1(18),2(20),3,5,15(19),16-hexaene-8-carboxamide]: the minimal inhibitory concentration (MIC) in assay [1] was 0.56 µM; in assay [2], 0.053 µM.

As for `Cc1nc(-c2ccc(C(C)(C)C)cc2)ccc1C(=O)N[C@@H](CCN)C(=O)N(C)[C@@H]1C(=O)N[C@@H](C)C(=O)N[C@H](C(=O)NCC#N)Cc2ccc(O)c(c2)-c2cc1ccc2OCCN` (racemic) [Compound 526, rac-(8S,11S,14S)-18-(2-aminoethoxy)-N-(cyanomethyl)-3-hydroxy-11-methyl-14-[methyl-[rac-(2S)-4-amino-2-[[6-(4-tert-butylphenyl)-2-methyl-pyridine-3-carbonyl]amino]butanoyl]amino]-10,13-dioxo-9,12-diazatricyclo[13.3.1.12,6]icosa-1(18),2(20),3,5,15(19),16-hexaene-8-carboxamide], the minimum inhibitory concentration (MIC) in assay [1] worked out at 0.33 µM; in assay [2], 0.047 µM.

`Cc1cc(-c2ccc(C(C)(C)C)cc2)nc(C)c1C(=O)N[C@@H](CCN)C(=O)N(C)[C@@H]1C(=O)N[C@@H](C)C(=O)N[C@H](C(=O)NCC#N)Cc2ccc(O)c(c2)-c2cc1ccc2OCCN` (racemic) [Compound 530, rac-(8S,11S,14S)-18-(2-aminoethoxy)-N-(cyanomethyl)-3-hydroxy-11-methyl-14-[methyl-[rac-(2S)-4-amino-2-[[6-(4-tert-butylphenyl)-2,4-dimethyl-pyridine-3-carbonyl]amino]butanoyl]amino]-10,13-dioxo-9,12-diazatricyclo[13.3.1.12,6]icosa-1(18),2(20),3,5,15(19),16-hexaene-8-carboxamide]: the figures for the MIC in assay [1] and in assay [2] were 0.35 µM and 0.063 µM, respectively.

As to `Cc1nc(-c2ccc3c(c2)CCC3(C)C)nc(C)c1C(=O)N[C@@H](CCN)C(=O)N(C)[C@@H]1C(=O)N[C@@H](C)C(=O)N[C@H](C(=O)NCC#N)Cc2ccc(O)c(c2)-c2cc1ccc2OCCN` (racemic) [Compound 531, rac-(8S,11S,14S)-18-(2-aminoethoxy)-N-(cyanomethyl)-3-hydroxy-11-methyl-14-[methyl-[rac-(2S)-4-amino-2-[[2-(1,1-dimethylindan-5-yl)-4,6-dimethyl-pyrimidine-5-carbonyl]amino]butanoyl]amino]-10,13-dioxo-9,12-diazatricyclo[13.3.1.12,6]icosa-1(18),2(20),3,5,15 8-carboxamide], the MIC was 0.25 µM in assay [1] and 0.047 µM in assay [2].

In the case of `CCC(C)(C)c1ccc(-c2ncc(C(=O)N[C@@H](CCN)C(=O)N(C)[C@@H]3C(=O)N[C@@H](C)C(=O)N[C@H](C(=O)NCC#N)Cc4ccc(O)c(c4)-c4cc3ccc4OCCN)c(C)n2)cc1` (racemic) [Compound 535, rac-(8S,11S,14S)-18-(2-aminoethoxy)-N-(cyanomethyl)-3-hydroxy-11-methyl-14-[methyl-[rac-(2S)-4-amino-2-[[2-[4-(1,1-dimethylpropyl)phenyl]-4-methyl-pyrimidine-5-carbonyl]amino]butanoyl]amino]-10,13-dioxo-9,12-diazatricyclo[13.3.1.12,6]icosa-1(18),2(20),3,5,15(19),16-hexaene-8-carboxamide], the minimum inhibitory concentration (MIC) in assay [1] is 0.23 µM; in assay [2] it was 0.029 µM.

Turning to `CCCCCOc1ccc(-c2nc(C)c(C(=O)N[C@@H](CCN)C(=O)N(C)[C@@H]3C(=O)N[C@@H](C)C(=O)N[C@H](C(=O)NCC#N)Cc4ccc(OCCN)c(c4)-c4cc3ccc4O)c(C)n2)cc1` (racemic) [Compound 536, rac-(8S,11S,14S)-3-(2-aminoethoxy)-N-(cyanomethyl)-18-hydroxy-11-methyl-14-[methyl-[rac-(2S)-4-amino-2-[[4,6-dimethyl-2-(4-pentoxyphenyl)pyrimidine-5-carbonyl]amino]butanoyl]amino]-10,13-dioxo-9,12-diazatricyclo[13.3.1.12,6]icosa-1(18),2(20),3,5,15(19),16-hexaene-8-carboxamide], the MIC stood at 0.13 µM in assay [1] and 0.016 µM in assay [2].

In the case of `Cc1nc(-c2ccc(OCCC(C)(C)C)cc2)nc(C)c1C(=O)N[C@@H](CCN)C(=O)N(C)[C@@H]1C(=O)N[C@@H](C)C(=O)N[C@H](C(=O)NCC#N)Cc2ccc(O)c(c2)-c2cc1ccc2OCCN` (racemic) [Compound 539, rac-(8S,11S,14S)-18-(2-aminoethoxy)-N-(cyanomethyl)-3-hydroxy-11-methyl-14-[methyl-[rac-(2S)-4-amino-2-[[2-[4-(3,3-dimethylbutoxy)phenyl]-4,6-dimethyl-pyrimidine-5-carbonyl]amino]butanoyl]amino]-10,13-dioxo-9,12-diazatricyclo[13.3.1.12,6]icosa-1(18),2(20),3,5,15(19),16-hexaene-8-carboxamide], the MIC in assay [1] is 0.15 µM; in assay [2] it was 0.023 µM.

Consider `Cc1nc(-c2ccc(O)cc2)nc(C)c1C(=O)N[C@@H](CCN)C(=O)N(C)[C@@H]1C(=O)N[C@@H](C)C(=O)N[C@H](C(=O)NCC#N)Cc2ccc(OCCN)c(c2)-c2cc1ccc2OCCN` (racemic) [Compound 542, rac-(8S,11S,14S)-3,18-bis(2-aminoethoxy)-N-(cyanomethyl)-11-methyl-14-[methyl-[rac-(2S)-4-amino-2-[[2-(4-hydroxyphenyl)-4,6-dimethyl-pyrimidine-5-carbonyl]amino]butanoyl]amino]-10,13-dioxo-9,12-diazatricyclo[13.3.1.12,6]icosa-1(18),2(20),3,5,15(19),16-hexaene-8-carboxamide], for which the MIC is 4.4 µM in assay [1] and 0.55 µM in assay [2].

Regarding `Cc1nc(-c2ccc(C3(C)CC3)cc2)nc(C)c1C(=O)N[C@@H](CCN)C(=O)N(C)[C@@H]1C(=O)N[C@@H](C)C(=O)N[C@H](C(=O)NCC#N)Cc2ccc(O)c(c2)-c2cc1ccc2OCCN` (racemic) [Compound 543, rac-(8S,11S,14S)-18-(2-aminoethoxy)-N-(cyanomethyl)-3-hydroxy-11-methyl-14-[methyl-[rac-(2S)-4-amino-2-[[4,6-dimethyl-2-[4-(1-methylcyclopropyl)phenyl]pyrimidine-5-carbonyl]amino]butanoyl]amino]-10,13-dioxo-9,12-diazatricyclo[13.3.1.12,6]icosa-1(18),2(20),3,5,15(19),16-hexaene-8-carboxamide], the MIC is 0.35 µM in assay [1] and 0.063 µM in assay [2].

For `Cc1nc(-c2ccc(C(C)(C)C)cc2)nc(N)c1C(=O)N[C@@H](CCN)C(=O)N(C)[C@@H]1C(=O)N[C@@H](C)C(=O)N[C@H](C(=O)NCC#N)Cc2ccc(O)c(c2)-c2cc1ccc2OCCN` (racemic) [Compound 548, rac-(8S,11S,14S)-18-(2-aminoethoxy)-N-(cyanomethyl)-3-hydroxy-11-methyl-14-[methyl-[rac-(2S)-4-amino-2-[[4-amino-2-(4-tert-butylphenyl)-6-methyl-pyrimidine-5-carbonyl]amino]butanoyl]amino]-10,13-dioxo-9,12-diazatricyclo[13.3.1.12,6]icosa-1(18),2(20),3,5,15(19),16-hexaene-8-carboxamide], the results for the MIC in assay [1] and in assay [2] were 0.46 µM and 0.047 µM, respectively.

Turning to `Cc1nc(-c2ccc(C(C)(C)C)cc2)ncc1C(=O)N[C@@H](CCN)C(=O)N(C)[C@@H]1C(=O)N[C@@H](C)C(=O)N[C@H](C(=O)NCC#N)Cc2ccc(OCCN)c(c2)-c2cc1ccc2O` (racemic) [Compound 549, rac-(8S,11S,14S)-3-(2-aminoethoxy)-N-(cyanomethyl)-18-hydroxy-11-methyl-14-[methyl-[rac-(2S)-4-amino-2-[[2-(4-tert-butylphenyl)-4-methyl-pyrimidine-5-carbonyl]amino]butanoyl]amino]-10,13-dioxo-9,12-diazatricyclo[13.3.1.12,6]icosa-1(18),2(20),3,5,15(19),16-hexaene-8-carboxamide], the results for the MIC in assay [1] and in assay [2] were 0.21 µM and 0.035 µM, respectively.

On to `Cc1nc(-c2ccc(OC(C)C)cc2)nc(C)c1C(=O)N[C@@H](CCN)C(=O)N(C)[C@@H]1C(=O)N[C@@H](C)C(=O)N[C@H](C(=O)NCC#N)Cc2ccc(O)c(c2)-c2cc1ccc2OCCN` (racemic) [Compound 552, rac-(8S,11S,14S)-18-(2-aminoethoxy)-N-(cyanomethyl)-3-hydroxy-11-methyl-14-[methyl-[rac-(2S)-4-amino-2-[[2-(4-isopropoxyphenyl)-4,6-dimethyl-pyrimidine-5-carbonyl]amino]butanoyl]amino]-10,13-dioxo-9,12-diazatricyclo[13.3.1.12,6]icosa-1(18),2(20),3,5,15(19),16-hexaene-8-carboxamide], for which the MIC amounted to 1.4 µM in assay [1] and 0.25 µM in assay [2].

`Cc1nc(-c2ccc(C(C)(C)C)cc2)nc(C)c1C(=O)N[C@@H](CCN)C(=O)N(C)[C@@H]1C(=O)N[C@@H](C)C(=O)N[C@H](C(=O)NCC#N)Cc2ccc(OCCN)c(c2)-c2cc1ccc2O` (racemic) [Compound 553, rac-(8S,11S,14S)-3-(2-aminoethoxy)-N-(cyanomethyl)-18-hydroxy-11-methyl-14-[methyl-[rac-(2S)-4-amino-2-[[2-(4-tert-butylphenyl)-4,6-dimethyl-pyrimidine-5-carbonyl]amino]butanoyl]amino]-10,13-dioxo-9,12-diazatricyclo[13.3.1.12,6]icosa-1(18),2(20),3,5,15(19),16-hexaene-8-carboxamide]: the minimum inhibitory concentration (MIC) in assay [1] amounted to 0.21 µM; in assay [2] it was 0.055 µM.

Values taken from patent US20260274892A1, “MACROCYCLIC BROAD SPECTRUM ANTIBIOTICS” (RQx Pharmaceuticals, Inc., priority 2017, published 2026).
